Test results published in patent US6436925B1, “Substituted benzamides, their production and their use as cysteine protease inhibitors” (Abbott Laboratories, priority 1998, dated 2002).

Biological target: T1, calpain I (human μ-calpain) (Homo sapiens, UniProt P07384)
T1 construct: Human μ-calpain is isolated from erythrocytes; from tissue; host or cells: human erythrocytes
T1 sequence (P07384 1-714): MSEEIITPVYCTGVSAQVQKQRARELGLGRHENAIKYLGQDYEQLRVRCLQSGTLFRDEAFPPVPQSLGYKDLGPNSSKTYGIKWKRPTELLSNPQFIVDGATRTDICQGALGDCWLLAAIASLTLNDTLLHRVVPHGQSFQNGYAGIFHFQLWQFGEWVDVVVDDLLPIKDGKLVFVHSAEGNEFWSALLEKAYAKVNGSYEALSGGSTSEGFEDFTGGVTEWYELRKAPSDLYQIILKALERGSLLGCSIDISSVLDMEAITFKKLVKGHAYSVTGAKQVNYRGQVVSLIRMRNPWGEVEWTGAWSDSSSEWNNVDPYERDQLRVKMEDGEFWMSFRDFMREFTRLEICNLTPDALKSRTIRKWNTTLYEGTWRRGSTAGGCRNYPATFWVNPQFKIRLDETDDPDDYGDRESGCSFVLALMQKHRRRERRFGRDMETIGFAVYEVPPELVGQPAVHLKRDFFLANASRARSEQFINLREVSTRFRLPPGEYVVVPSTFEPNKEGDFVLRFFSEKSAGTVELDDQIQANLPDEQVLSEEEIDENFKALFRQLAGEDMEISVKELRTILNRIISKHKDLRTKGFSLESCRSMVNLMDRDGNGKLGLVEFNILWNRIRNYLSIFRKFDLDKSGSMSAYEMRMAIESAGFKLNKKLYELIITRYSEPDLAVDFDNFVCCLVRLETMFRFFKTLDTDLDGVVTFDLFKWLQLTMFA
T1 sequence (P04632 1-268 partner): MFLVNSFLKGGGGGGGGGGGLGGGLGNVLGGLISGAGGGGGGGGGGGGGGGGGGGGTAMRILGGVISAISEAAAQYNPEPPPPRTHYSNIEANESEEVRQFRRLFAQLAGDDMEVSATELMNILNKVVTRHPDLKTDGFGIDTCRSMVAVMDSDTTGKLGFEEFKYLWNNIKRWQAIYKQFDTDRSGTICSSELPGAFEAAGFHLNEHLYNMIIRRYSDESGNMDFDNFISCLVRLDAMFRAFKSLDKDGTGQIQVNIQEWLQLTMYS
Assay: Calpain I and II assay (fluorogenic substrate Suc-Leu-Tyr-AMC)
Format: biochemical
Experimental: The inhibitory effect of the benzamides I has been determined using enzyme assays known from the literature, determining as criterion of effect a concentration of the inhibitor at which 50% of the enzyme activity is inhibited (=IC50). The amides I were measured in this way for their inhibitory effect on calpain I, calpain II and cathepsin B.
The testing of the inhibitory properties of calpain inhibitors takes place in buffer with 50 mM tris-HCl, pH 7.5; 0.1 M NaCl; 1 mM dithiotreithol [sic]; 0.11 mM CaCl2, using the fluorogenic calpain substrate Suc-Leu-Tyr-AMC (25 mM dissolved in DMSO, Bachem/switzerland). Human μ-calpain is isolated from erythrocytes, and enzyme with a purity >95%, assessed by SDS-PAGE, Western blot analysis and N-terminal sequencing, is obtained after more [sic] chromatographic steps (DEAE-Sepharose, phenyl-Sepharose, Superdex 200 and blue Sepharose). The fluorescence of the cleavage product 7-amino-4-methylcoumarin (AMC) is followed in a Spex Fluorolog fluorimeter at λex=380 nm and λem =460 nm. […]
In a test mixture, 10 μl of substrate (250 μM final) and then 10 μl of μ-calpain (2 μg/ml final, i.e. 18 nM) are added to a 1 ml cuvette containing buffer. The calpain-mediated cleavage of the substrate is measured for from 15 to 20 min. […] Ki values are determined using the classical equation for reversible inhibition: […]

`O=C(N[C@@H](Cc1ccccc1)C(=O)CNS(=O)(=O)c1ccccc1)c1cccc(NS(=O)(=O)c2ccc3ccccc3c2)c1` [Example 1, 3(2-Naphthylsulfonamido)-N(3(S)-4-phenyl-1-phenylsulfonamidobutan-2-on-3-yl)benzamide] showed an inhibition at 1 µM (at a concentration of 1 μM) greater than 50% and a Ki (calpain I, inferred from more than 50% inhibition at 1 μM) of less than 1000 nM.
